Reference: paper PMC6030077, “Dual role of HDAC10 in lysosomal exocytosis and DNA repair promotes neuroblastoma chemoresistance” (Scientific Reports, 2018)

What was measured:
IMR-32 cells = assay: Flow cytometric quantification of intracellular doxorubicin accumulation, IMR-32; format: cell-based, human; settings: 50 ng/ml doxorubicin +/− 7.5 µM tubastatin A, 18 h
Method: For flow cytometric quantification of intracellular doxorubicin after HDAC6/10 inhibition, BE(2)-C, SK-N-AS, IMR-32, HAP1 wild type and HDAC10 knockout cells were seeded in 6-well dishes at a density of 1.5 ∗ 10^5 cells/well (BE(2)-C and SK-N-AS, HAP1) and 3 ∗ 10^5 cells/well (IMR-32). Cells were treated with 25 ng/ml, 50 ng/ml, 100 ng/ml or 1 µg/ml doxorubicin, respectively, for 3–48 h (see respective figure legend). Where indicated, cells were co-treated with HDAC6/10 or lysosomal inhibitors. In case of co-treatment with vacuolin-1, vacuolin-1 was directly added to cells under doxorubicin treatment 1 h or 24 h prior to analysis. Flow cytometric quantification of intracellular doxorubicin after HDAC6, HDAC10 or P-glycoprotein knockdown in BE(2)-C cells was performed 5 days (P-glycoprotein) or 6 days (HDAC6/10) after transfection with siRNA. To that end, cells were seeded 3–4 days after transfection into 6-well dishes at 1.5 ∗ 10^5 cells per well and treated with 100 ng/ml doxorubicin +/− HDAC6/10 and lysosomal inhibitors for the last 24 h. After doxorubicin treatment, BE(2)-C, SK-N-AS, IMR-32 and HAP1 cells were washed with ice-cold RPMI w/o phenol-red and detached using Trypsin/EDTA for 3 minutes at 37 °C. Cells were centrifuged, resuspended in RPMI w/o phenol red and doxorubicin fluorescence was quantified on a BD FACSCanto II platform using the PE filter setting.

[1] = test system: proliferating human fibroblasts; assay: Flow cytometric analysis of cellular doxorubicin fluorescence, fibroblasts; format: cell-based; settings: 100 ng/ml doxorubicin 48 h; tubastatin A 7.5 µM, vacuolin-1 10 µM, verapamil 10 µM
BE(2)-C cells [2] = assay: Confocal fluorescence microscopy of doxorubicin-loaded damaged nuclei; format: cell-based, human; settings: 250 ng/ml doxorubicin + 7.5 µM tubastatin A, 24 h
Method: BE(2)-C cells were seeded at a density of 2 ∗ 10^4 cells per well into an ibidi 8-well µ-slide one day before treatment. For analysis of doxorubicin uptake, cells were treated with 250 ng/ml doxorubicin +/− HDAC6/10 or lysosomal inhibitors for 24 h. The next day, cells were washed in PBS, fixed for 20 minutes using 4% PFA at room temperature, washed twice with PBS and counterstained with DAPI (4′,6-Diamidino-2-phenylindole). In case of LysoTracker® Red staining, cells were treated for 24 h with HDAC6/10 inhibitors. One hour before fixation, LysoTracker® Red was added at a final concentration of 50 nM and cells were stained for 1 h under standard cell culture conditions. Cells were washed as described, fixed for 15 minutes using 4% PFA at room temperature and counterstained as described above. […] Cells were fixed for 15 minutes using 4% PFA, permeabilized for 30 minutes with 0.2% Triton X-100 and blocked in 0.05% Triton X-100 and 3% BSA in PBS for 1 h at room temperature. Cells were stained with Phospho-Histone H2A.X (S139) primary antibody (CST #9718) over night (4 °C) and for 2 h with Alexa-488-labeled secondary antibody (ThermoFisher A-11008) at room temperature. Nuclei were counterstained with DAPI. Images were acquired on a Zeiss LSM710 (Oberkochen, Germany) laser scanning confocal microscope using the 40× objective.

BE(2)-C cells [3] = assay: Colony formation assay; format: cell-based, human; settings: treated for 24 h, 11 more days growth
Method: RNA isolation and real-time RT-PCR
RNA was isolated from neuroblastoma cell lines using the RNeasy MiniKit (Qiagen) according to
manufacturer's instructions. Real-time RT-PCR was performed as described in1. Data were normalized
to neuroblastoma housekeeping genes SDHA and […] and depicted as fold change relative to
negative control. The following primer pairs were used: HPRT (hypoxanthine
phosphoribosyltransferase 1, forward: 5′-[…]-3′ reverse: 5′-
-3′, ABCB1 (P-GP), forward: 5'-[…]-
3', reverse: 5'-[…]-3' , SDHA (succinate dehydrogenase complex,
subunit A, forward: 5′-[…]-3′, reverse: 5′-
BE(2)-C cells were seeded on 6-well plates at a density of 800 cells per well and treated as indicated
for 24 hours. After 24 hours, drugs were washed out and cells were allowed to grow for 11 more days
before staining of viable cell colonies with crystal violet (1 % crystal violet (w/v) in 70% ethanol). For
quantification, the plates were scanned, and colonies were counted in […] binary pictures with the
ITCN plugin for ImageJ software (U. S. National Institutes of Health, Bethesda, MD,
USA; http://imagej.nih.gov/ij/).

BE(2)-C cells [4] = assay: Flow cytometric analysis of γH2A.X staining (DNA double-strand breaks); format: cell-based, human; settings: 24 h, tubastatin A 7.5 µM, vacuolin-1 10 µM
Method: Cells were dissociated from dishes using non-enzymatic cell dissociation reagent for five minutes. Cells were counted using a ViCell XR automatic cell counter (Beckmann Coulter) and 2.5 ∗ 10^5 cells were transferred into a pre-cooled 96-well round bottom plate (TPP92097). […] Cells were washed three times in FACS buffer (5% FBS in PBS) after each antibody incubation step. For evaluation of DNA double-strand breaks, cells were detached from dishes using trypsin, counted using a ViCell XR automatic cell counter (Beckmann Coulter) and transferred into a pre-cooled 96-well round bottom plate (4 ∗ 10^6 cells/well). Cells were fixed and permeabilized using the eBioscience^TM Foxp3/Transcription Factor Staining Buffer Set (Thermo Fisher Scientific). […] Cells were washed three times in 1× permeabilization buffer after each antibody incubation step and fluorescence was quantified on a BD FACSCanto II platform.

BE(2)-C cells [5] = assay: Alkaline single cell gel electrophoresis assay (comet assay); format: cell-based, human; settings: 18 h
Method: BE(2)-C cells were treated with the HDAC6/10 inhibitor tubastatin A alone or in combination with the genotoxic drug doxorubicin (100 ng/ml doxorubicin, 7.5 µM tubastatin) for 18 h. Untreated cell aliquots and cells irradiated with 5 Gy (^137Cs radiation source, dose rate of 1 Gy min^−1) were used as negative and positive controls, respectively. Cells were subsequently analyzed by the alkaline comet assay as previously described[68],[69] with some modifications. In brief, the cells were mixed with 0.7% low-melting temperature agarose (Biozym), plated on two-well slides (Trevigen), and subsequently lysed overnight. Single cell electrophoresis was performed at 4 °C. Analysis of DNA damage was accomplished by fluorescence microscopy using a fully automated cell scanning system Metafer-4 (Metasystems) as described in[70]. DNA damage was assessed as “Tail DNA in %”. Statistical evaluation of two differently treated cell aliquots was performed with the Mann Whitney test using GraphPad Prism version 5.04 for Windows.

## CN1CCc2c(c3ccccc3n2Cc2ccc(C(=O)NO)cc2)C1 [tubastatin A]
IMR-32 cells
  doxorubicin accumulation, IMR-32: increased accumulation of doxorubicin
[1]
  intracellular doxorubicin in fibroblasts: did not exhibit strongly increased intracellular doxorubicin
BE(2)-C cells [2]
  dying cells with highly condensed chromatin, combination with doxorubicin compared to doxorubicin alone: increased the number of dying cells
BE(2)-C cells [3]
  growth of BE(2)-C cells in colony assays, combination with doxorubicin: effectively reduce growth
BE(2)-C cells [4]; 100 ng/ml doxorubicin
  DSBs (γH2A.X), co-treatment with doxorubicin compared to doxorubicin alone: significantly increased the amount of DSBs
BE(2)-C cells [4]; verapamil 10 µM
  DSBs (γH2A.X), treatment alone in the absence of doxorubicin: increase DSBs
BE(2)-C cells [5]; tubastatin A 7.5 µM + doxorubicin 100 ng/ml
  DSBs in comet assays, addition to doxorubicin treatment: substantially increased doxorubicin induced DSBs
BE(2)-C cells [5]; tubastatin A 7.5 µM or doxorubicin 100 ng/ml
  DSBs in comet assays, single treatment: increased DSBs only trend-wise
